Measurements as given in patent publication US3989730A, “Bone-seeking technetium-99m complex” (priority 1973, dated 1976).
Read-outs that look alike come from different tables or passages of the source.

Key:
[1] = 2 Hrs
[2] = radioactive decay; cited from earlier work
[3] = test system: callous of three week-old fractures of tibia; assay: Localization in callous of three week-old tibial fractures (rabbits), compared with strontium-85; assay type: in vivo, albino rabbits
Procedure: Adult New Zealand albino rabbits having an average weight of 3.8 kg were utilized. Strontium-85 was employed as a standard for comparison. In a typical experiment 20-250 μCi (i.e., containing approximately 1 mg/kg as the free acid of body weight) of 99mTc EHDP were injected intravenously into the rabbits through the marginal ear vein and compared with 10-20 μ Ci 85 Sr chloride administered simutaneously. Each dosage is contained in a volume of 1 ml.
The animals were sacrificed serially from 1 to 24 hours after injection and the activities in major organs were determined by counting multiple samples from each organ in a scintillation well counter (the technetium-99m counts were corrected for the Compton contributions from the strontium-85 activity in the technetium-99m energy window). Multiple samples were counted from the tibia, femur, spine and pelvic bones; the total activity in the skeleton was estimated by assuming the whole skeleton consisted of equal proportions by weight of tibia, spine, femur and pelvis and that the skeletal mass was 10% of the body weight. The red marrow was sampled from the femur and the total marrow was assumed to be 2.2% of the total body weight. Similarly, blood volume was assumed to be 7% and the skeletal muscle 43% of the body weight. The whole liver and both kidneys were weighed and multiple samples from each were counted to measure the total activity in each organ.
In another series of experiments carried out as described above, localization of technetium from its tin-phosphonate complex was determined in the callous of three week-old fractures of tibia in albino rabbits, again in comparison with strontium-85. Comparative radioassay of technetium-99m administered as the pertechnetate was measured in the callous of tibial fractures in rabbits at one and four hours after administration.

[4] = Simultaneous distribution of 99mTc-EHDP and 85Sr in rabbits at 1-24 hours after intravenous injection; assay type: in vivo, adult New Zealand albino rabbits; details: for Blood, % Dose in Whole Organ: blood as 7 % of body weight; for Bone(Avg), % dose in whole organ: bone as 10 % of body weight; for Marrow, % Dose in Whole Organ: marrow as 2.2 % of body weight; for Muscle, % Dose in Whole Organ: muscle as 43 % of body weight
Procedure: Adult New Zealand albino rabbits having an average weight of 3.8 kg were utilized. Strontium-85 was employed as a standard for comparison. […] Each dosage is contained in a volume of 1 ml.
Multiple samples were counted from the tibia, femur, spine and pelvic bones; the total activity in the skeleton was estimated by assuming the whole skeleton consisted of equal proportions by weight of tibia, spine, femur and pelvis and that the skeletal mass was 10% of the body weight. […] The whole liver and both kidneys were weighed and multiple samples from each were counted to measure the total activity in each organ.

SMILES: [85Sr+2].[Cl-].[Cl-] [85Sr, reference compound]
- Blood, % Dose in Whole Organ ([1]; AEDP 0.01 mg/kg): 2.99 % Dose
- Kidneys, % Dose in Whole Organ ([1]; AEDP 0.01 mg/kg): 0.329 % Dose
- Liver, % Dose in Whole Organ ([1]; AEDP 0.01 mg/kg): 0.568 % Dose
- Marrow, % Dose in Whole Organ ([1]; AEDP 0.01 mg/kg): 0.465 % Dose
- Urine, % Dose ([1]; AEDP 0.01 mg/kg): 20.97 % Dose
- Blood, % Dose in Whole Organ ([1]; AEDP 0.05 mg/kg): 2.50 % Dose
- Kidneys, % Dose in Whole Organ ([1]; AEDP 0.05 mg/kg): 0.353 % Dose
- Liver, % Dose in Whole Organ ([1]; AEDP 0.05 mg/kg): 0.613 % Dose
- Marrow, % Dose in Whole Organ ([1]; AEDP 0.05 mg/kg): 0.486 % Dose
- Urine, % Dose ([1]; AEDP 0.05 mg/kg): 11.95 % Dose
- Blood, % Dose in Whole Organ ([1]; AEDP 0.1 mg/kg): 2.48 % Dose
- Kidneys, % Dose in Whole Organ ([1]; AEDP 0.1 mg/kg): 0.324 % Dose
- Liver, % Dose in Whole Organ ([1]; AEDP 0.1 mg/kg): 0.654 % Dose
- Marrow, % Dose in Whole Organ ([1]; AEDP 0.1 mg/kg): 0.244 % Dose
- Urine, % Dose ([1]; AEDP 0.1 mg/kg): 12.1 % Dose
- Blood, % Dose in Whole Organ ([1]; AEDP 0.5 mg/kg): 4.36 % Dose
- Kidneys, % Dose in Whole Organ ([1]; AEDP 0.5 mg/kg): 0.384 % Dose
- Liver, % Dose in Whole Organ ([1]; AEDP 0.5 mg/kg): 0.720 % Dose
- Urine, % Dose ([1]; AEDP 0.5 mg/kg): 10.47 % Dose
- Urine, % Dose ([1]; EHDP 0.01 mg/kg): 23.66 % Dose
- Urine, % Dose ([1]; EHDP 0.05 mg/kg): 13.4 % Dose
- Urine, % Dose ([1]; EHDP 0.1 mg/kg): 11.31 % Dose
- Urine, % Dose ([1]; EHDP 0.5 mg/kg): 19.6 % Dose
- Blood, % Dose in Whole Organ ([1]; MDP 0.01 mg/kg): 3.27 % Dose
- Kidneys, % Dose in Whole Organ ([1]; MDP 0.01 mg/kg): 0.34 % Dose
- Liver, % Dose in Whole Organ ([1]; MDP 0.01 mg/kg): 0.65 % Dose
- Marrow, % Dose in Whole Organ ([1]; MDP 0.01 mg/kg): 0.53 % Dose
- Muscle, % Dose in Whole Organ ([1]; MDP 0.01 mg/kg): 5.69 % Dose
- One Femur, % Dose in Whole Organ ([1]; MDP 0.01 mg/kg): 3.46 % Dose
- Urine, % Dose ([1]; MDP 0.01 mg/kg): 10.3 % Dose
- Blood, % Dose in Whole Organ ([1]; MDP 0.05 mg/kg): 3.66 % Dose
- Kidneys, % Dose in Whole Organ ([1]; MDP 0.05 mg/kg): 0.46 % Dose
- Liver, % Dose in Whole Organ ([1]; MDP 0.05 mg/kg): 0.71 % Dose
- Marrow, % Dose in Whole Organ ([1]; MDP 0.05 mg/kg): 0.53 % Dose
- Muscle, % Dose in Whole Organ ([1]; MDP 0.05 mg/kg): 5.89 % Dose
- One Femur, % Dose in Whole Organ ([1]; MDP 0.05 mg/kg): 2.53 % Dose
- Urine, % Dose ([1]; MDP 0.05 mg/kg): 23.16 % Dose
- Blood, % Dose in Whole Organ ([1]; MDP 0.1 mg/kg): 3.95 % Dose
- Kidneys, % Dose in Whole Organ ([1]; MDP 0.1 mg/kg): 0.66 % Dose
- Liver, % Dose in Whole Organ ([1]; MDP 0.1 mg/kg): 1.05 % Dose
- Marrow, % Dose in Whole Organ ([1]; MDP 0.1 mg/kg): 0.57 % Dose
- Muscle, % Dose in Whole Organ ([1]; MDP 0.1 mg/kg): 9.32 % Dose
- One Femur, % Dose in Whole Organ ([1]; MDP 0.1 mg/kg): 2.80 % Dose
- Urine, % Dose ([1]; MDP 0.1 mg/kg): 15.4 % Dose
- Blood, % Dose in Whole Organ ([1]; MDP 0.5 mg/kg): 3.11 % Dose
- Kidneys, % Dose in Whole Organ ([1]; MDP 0.5 mg/kg): 0.45 % Dose
- Liver, % Dose in Whole Organ ([1]; MDP 0.5 mg/kg): 0.69 % Dose
- Marrow, % Dose in Whole Organ ([1]; MDP 0.5 mg/kg): 0.67 % Dose
- Muscle, % Dose in Whole Organ ([1]; MDP 0.5 mg/kg): 5.65 % Dose
- One Femur, % Dose in Whole Organ ([1]; MDP 0.5 mg/kg): 2.96 % Dose
- Urine, % Dose ([1]; MDP 0.5 mg/kg): 15.16 % Dose
- half-life of radionuclide [2]: 65 days
- Callus, % dose / 1 % body weight ([3]; 1 Hr): 31.2 % dose / 1 % body weight
- Callus, % dose / 1 % body weight ([3]; 4 Hrs): 37.7 % dose / 1 % body weight
- Bone(Avg), % dose / 1 % body weight ([4]; 1 Hr): 5.60 % dose / 1 % body weight
- Femur, % dose / 1 % body weight ([4]; 1 Hr): 4.90 % dose / 1 % body weight
- Kidneys, % Dose in Whole Organ ([4]; 1 Hr): 0.80 % dose
- Pelvis, % dose / 1 % body weight ([4]; 1 Hr): 7.07 % dose / 1 % body weight
- Spine, % dose / 1 % body weight ([4]; 1 Hr): 7.03 % dose / 1 % body weight
- Tibia, % dose / 1 % body weight ([4]; 1 Hr): 3.62 % dose / 1 % body weight
- Urine, % Dose ([4]; 1 Hr): 6.96 % dose
- Blood, % Dose in Whole Organ ([4]; 1 Hr): 11.9 % dose
- Bone(Avg), % dose in whole organ ([4]; 1 Hr): 56.0 % dose
- Marrow, % Dose in Whole Organ ([4]; 1 Hr): 0.91 % dose
- Muscle, % Dose in Whole Organ ([4]; 1 Hr): 13.4 % dose
- Bone(Avg), % dose / 1 % body weight ([4]; 2 Hrs): 6.44 % dose / 1 % body weight
- Femur, % dose / 1 % body weight ([4]; 2 Hrs): 5.74 % dose / 1 % body weight
- Kidneys, % Dose in Whole Organ ([4]; 2 Hrs): 0.64 % dose
- Pelvis, % dose / 1 % body weight ([4]; 2 Hrs): 7.70 % dose / 1 % body weight
- Spine, % dose / 1 % body weight ([4]; 2 Hrs): 7.59 % dose / 1 % body weight
- Tibia, % dose / 1 % body weight ([4]; 2 Hrs): 4.73 % dose / 1 % body weight
- Urine, % Dose ([4]; 2 Hrs): 18.0 % dose
- Blood, % Dose in Whole Organ ([4]; 2 Hrs): 7.08 % dose
- Bone(Avg), % dose in whole organ ([4]; 2 Hrs): 49.4 % dose
- Marrow, % Dose in Whole Organ ([4]; 2 Hrs): 0.76 % dose
- Muscle, % Dose in Whole Organ ([4]; 2 Hrs): 8.8 % dose
- Bone(Avg), % dose / 1 % body weight ([4]; 4 Hrs): 6.81 % dose / 1 % body weight
- Femur, % dose / 1 % body weight ([4]; 4 Hrs): 6.17 % dose / 1 % body weight
- Kidneys, % Dose in Whole Organ ([4]; 4 Hrs): 0.34 % dose
- Pelvis, % dose / 1 % body weight ([4]; 4 Hrs): 8.02 % dose / 1 % body weight
- Spine, % dose / 1 % body weight ([4]; 4 Hrs): 7.82 % dose / 1 % body weight
- Tibia, % dose / 1 % body weight ([4]; 4 Hrs): 5.13 % dose / 1 % body weight
- Urine, % Dose ([4]; 4 Hrs): 22.7 % dose
- Blood, % Dose in Whole Organ ([4]; 4 Hrs): 3.85 % dose
- Bone(Avg), % dose in whole organ ([4]; 4 Hrs): 68.1 % dose
- Marrow, % Dose in Whole Organ ([4]; 4 Hrs): 0.50 % dose
- Muscle, % Dose in Whole Organ ([4]; 4 Hrs): 6.46 % dose
- Bone(Avg), % dose / 1 % body weight ([4]; 24 Hrs): 5.21 % dose / 1 % body weight
- Femur, % dose / 1 % body weight ([4]; 24 Hrs): 4.83 % dose / 1 % body weight
- Kidneys, % Dose in Whole Organ ([4]; 24 Hrs): 0.03 % dose
- Marrow, % dose / 1 % body weight ([4]; 24 Hrs): 0.05 % dose / 1 % body weight
- Pelvis, % dose / 1 % body weight ([4]; 24 Hrs): 5.26 % dose / 1 % body weight
- Spine, % dose / 1 % body weight ([4]; 24 Hrs): 6.47 % dose / 1 % body weight
- Tibia, % dose / 1 % body weight ([4]; 24 Hrs): 4.27 % dose / 1 % body weight
- Blood, % Dose in Whole Organ ([4]; 24 Hrs): 0.29 % dose
- Bone(Avg), % dose in whole organ ([4]; 24 Hrs): 51.9 % dose
- Marrow, % Dose in Whole Organ ([4]; 24 Hrs): 0.10 % dose
- Muscle, % Dose in Whole Organ ([4]; 24 Hrs): 1.00 % dose
